The nature of series [1]: PAMPA membrane permeability assay. The format is in vitro ADME. The following applies: PAMPA permeability coefficient, GIT lipid, buffer pH 7.4, 4 hours incubation. In outline:
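Passive permeability across GIT lipid-coated artificial membrane; compounds at 50 μM in pH 7.4 buffer in donor wells, incubated 4 h. Donor, acceptor and reference concentrations read by UV spectroscopy, permeability coefficient calculated from spectral AUCs.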
A general note: PAMPA measures passive passage across an artificial lipid membrane.

In series [2] the target is T1, NaV1.7 (Homo sapiens, UniProt Q15858).
T1 construct: expressed in transfected cells; tetracycline-inducible, kept under hygromycin and blasticidin
The series can be described thus: Automated patch clamp (Qube 384), external block of NaV1.7 in HEK293 cells. The series is classed as cell-based. To be noted: compound in external solution, read-out: Nav1.7 Extracellular Inhibition (IC50). As to the method: (§1) NaV1.7 was expressed in HEK293 cells upon induction with tetracycline. Cells were cultured in DMEM containing 10% dialyzed Fetal Bovine Serum (VWR, Radnor, Pa.), 1% Glutamax (VWR, Radnor, Pa.), 1% Penicillin-Streptomycin (VWR, Radnor, Pa.), 100 mg/L Hygromycin (Thermo Fisher Scientific, Waltham, Mass. and 5 mg/L Blasticidin (Alfa Aesar, Haverhill, Mass.). Cells were grown and maintained at 37° C. in a humidified environment containing 10% CO2 in air. Cells were detached from the culture flask for passage and harvested using 0.05% Trypsin-EDTA (Thermo Fisher Scientific, Waltham, Mass.). To induce NaV1.7, cells were induced with tetracycline (0.1-1 μg/mL, IBI Scientific, Peosta, Iowa) the day before recording.
(§2) Before experiments, cells were washed with DPBS (VWR, Radnor, Pa.), digested with Detachin (VWR Radnor, Pa.) and then triturated 10 times in CHO Serum-Free Media (VWR Radnor, Pa.) to resuspend the cells and to break apart cell aggregates. Cells were counted and the final concentration was set at 2-5 million cells per mL.
(§3) The intracellular solution contained the following: 140 mM CsF, 1 mM/5 mM EGTA/CsOH, 10 mM HEPES, 10 mM NaCl, adjusted to pH 7.3 with CsOH, and osmolality to 320 with sucrose. The external solution contained the following: 145 mM NaCl, 4 mM KCl, 1 mM MgCl2, 2 mM CaCl2, 10 mM HEPES, 10 mM Glucose, adjusted to pH 7.4 with CsOH and osmolality to 305 with sucrose. All chemicals are from Sigma-Aldrich, St. Louis, Mo. In order to test the degree of internal block by test compounds, the compounds were dissolved in internal solution at the indicated test concentration. […] In order to test the degree of external block by test compounds the compounds were dissolved in external solution at the indicated test concentration.
(§4) Automated Patch Clamps were performed on Qube 384 (Sophion Bioscience, Woburn Mass.) with multihole Qchips at a temperature setting of 22 degrees. The whole cells configuration was formed with default Qube seal and break-in parameter. The membrane potential was held at −100 mV before the voltage protocol began. Two voltage protocols were followed.
(§5) Step 1: Cells were held at −100 mV with a depolarized pulse to −20 mV for 10 ms, the interval was set at 5 s. Currents were corrected by default leak subtraction from every pulse. The duration was set at 5 mins.
(§6) Step 2: Cells were held at −100 mV with a depolarized pulse to −20 mV for 10 ms. The frequency was 5 Hz. Currents were corrected by leak subtraction calculated before step 2. The duration was set at 4 mins.
After Step 2, the external solution was changed with solutions containing test compounds. Qchips were held at −100 mV without pulsing. The total solution switching time was 8 minutes. After the external solution exchange, cells were recorded using the same procedure as step 2 for 10 minutes.
Data analysis was performed by Sophion Analyzer. Data were corrected with control cells (Non-Drug). The IC50 data were plotted with DR-plots/Hill function (a dose-response plot with a Hill fit).
A general note: Patch clamp records ionic current or voltage across a cell membrane.

In series [3] the target is T1, NaV1.7. Nature of the series: Automated patch clamp (Qube 384), internal block of NaV1.7 in HEK293 cells. To be noted: compound in internal solution, read-out: Nav1.7 Intracellular Inhibition (IC50). The series is classed as cell-based. As to the method:
as §1, §2, §3, §4, §5, §6
After Step 2, the Qchip was removed from the recording chamber. The internal solution was changed with solutions containing test compounds. Qchips were held at −100 mV without pulsing after being replaced in the recording chamber. The total solution switching time was 8 minutes. After the internal solution exchange, Cells were recorded and step 2 for repeated for 10 minutes.
Data analysis was performed by Sophion Analyzer. Cells were filtered with minimum 50 MOhm seal resistance and minimum 5 nA starting current. The rundown of the currents was corrected with control cells (Non-Drug). The remaining was calculated by averaging last 3 points in the end of experiments. The base line was calculated as the average of last 3 points of Step 2. IC50 curves were plotted with DR-plots/Hill function (a dose-response plot with a Hill fit). Data analysis was performed by Sophion Analyzer.

T1 sequence (Q15858 whole entry): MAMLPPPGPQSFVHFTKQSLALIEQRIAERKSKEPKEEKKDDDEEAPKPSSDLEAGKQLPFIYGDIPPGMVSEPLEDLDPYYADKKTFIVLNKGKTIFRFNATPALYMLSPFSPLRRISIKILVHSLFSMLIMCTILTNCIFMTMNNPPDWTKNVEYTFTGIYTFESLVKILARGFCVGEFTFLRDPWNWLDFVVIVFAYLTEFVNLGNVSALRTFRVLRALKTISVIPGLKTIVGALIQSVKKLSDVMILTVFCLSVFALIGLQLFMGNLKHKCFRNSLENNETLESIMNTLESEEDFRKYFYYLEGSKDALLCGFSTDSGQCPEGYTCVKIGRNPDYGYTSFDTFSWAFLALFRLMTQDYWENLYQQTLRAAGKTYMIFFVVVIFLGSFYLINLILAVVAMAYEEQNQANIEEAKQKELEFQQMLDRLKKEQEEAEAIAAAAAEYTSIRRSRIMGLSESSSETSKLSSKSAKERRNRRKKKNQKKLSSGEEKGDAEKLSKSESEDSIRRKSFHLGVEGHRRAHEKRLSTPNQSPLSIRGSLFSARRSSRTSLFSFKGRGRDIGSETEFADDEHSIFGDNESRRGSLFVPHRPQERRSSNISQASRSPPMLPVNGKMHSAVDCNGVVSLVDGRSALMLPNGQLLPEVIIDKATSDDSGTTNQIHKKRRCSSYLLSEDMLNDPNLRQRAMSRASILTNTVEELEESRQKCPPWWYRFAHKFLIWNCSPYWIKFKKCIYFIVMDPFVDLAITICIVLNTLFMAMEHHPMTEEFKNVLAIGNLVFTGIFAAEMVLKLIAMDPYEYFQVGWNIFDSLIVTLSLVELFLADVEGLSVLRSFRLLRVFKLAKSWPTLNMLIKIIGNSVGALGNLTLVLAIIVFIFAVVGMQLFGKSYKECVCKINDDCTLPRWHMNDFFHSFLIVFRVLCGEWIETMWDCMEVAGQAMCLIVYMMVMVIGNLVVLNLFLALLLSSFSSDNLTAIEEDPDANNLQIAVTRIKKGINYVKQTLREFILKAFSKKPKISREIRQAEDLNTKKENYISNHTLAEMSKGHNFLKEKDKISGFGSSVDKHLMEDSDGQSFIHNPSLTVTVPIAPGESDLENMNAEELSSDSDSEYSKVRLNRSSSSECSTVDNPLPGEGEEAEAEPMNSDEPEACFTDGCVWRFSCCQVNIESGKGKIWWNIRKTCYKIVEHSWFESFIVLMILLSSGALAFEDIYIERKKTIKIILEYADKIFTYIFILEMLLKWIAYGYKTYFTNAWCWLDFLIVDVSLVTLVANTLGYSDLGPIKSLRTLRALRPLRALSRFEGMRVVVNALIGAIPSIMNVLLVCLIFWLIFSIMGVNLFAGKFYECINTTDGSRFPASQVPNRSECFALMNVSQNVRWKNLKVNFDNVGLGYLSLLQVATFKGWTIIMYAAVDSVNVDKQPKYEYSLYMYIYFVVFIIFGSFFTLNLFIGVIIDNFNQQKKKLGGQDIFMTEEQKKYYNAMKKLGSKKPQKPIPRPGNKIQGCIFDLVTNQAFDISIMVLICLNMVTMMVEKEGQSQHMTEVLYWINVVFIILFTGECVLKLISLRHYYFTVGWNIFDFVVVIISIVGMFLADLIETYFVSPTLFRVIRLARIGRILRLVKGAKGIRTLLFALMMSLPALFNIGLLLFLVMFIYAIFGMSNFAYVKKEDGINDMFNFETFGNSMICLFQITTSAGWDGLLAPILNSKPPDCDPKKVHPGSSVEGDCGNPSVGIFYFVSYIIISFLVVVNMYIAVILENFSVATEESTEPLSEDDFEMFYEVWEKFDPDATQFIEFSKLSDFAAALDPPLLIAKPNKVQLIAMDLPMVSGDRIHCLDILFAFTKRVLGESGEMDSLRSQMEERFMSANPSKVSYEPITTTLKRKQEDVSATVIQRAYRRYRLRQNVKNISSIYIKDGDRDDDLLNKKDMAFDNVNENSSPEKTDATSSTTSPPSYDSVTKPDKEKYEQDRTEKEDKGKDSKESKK

By IC50 is commonly meant the concentration that inhibits the measured activity by half. For `Cc1cccc(C)c1NC(=O)C[n+]1cccc(OC(C)C)c1` [Compound 87], the “PAMPA (10^−6 cm/s)” value in series [1] is recorded as “+ (<0.1 10^−6 cm/s)”. Besides, the figures for the IC50 in series [2] and in series [3] were greater than 100 µM and less than 1 µM, respectively.
The corresponding values for `Cc1cccc(C)c1NC(=O)C[n+]1cccc(OCc2ccccc2)c1` [Compound 88] are “+ (<0.1 10^−6 cm/s)”, greater than 100 µM and 3 to 10 µM.
For the compound `Cc1cccc(C)c1NC(=O)C[n+]1ccc(C(N)=O)c(C(F)(F)F)c1` [Compound 90], the “PAMPA (10^−6 cm/s)” value in series [1] was “+ (<0.1 10^−6 cm/s)”. Also, the 50% inhibitory concentration (IC50) in series [2] was greater than 100 µM; in series [3] it was 3 to 10 µM.
The like results for `Cc1cccc(C)c1NC(=O)C[n+]1cc(N)cc(C(F)(F)F)c1` [Compound 91] were, in that order, “+ (<0.1 10^−6 cm/s)”, 30 to 100 µM and 3 to 10 µM.
In the case of `Cc1cccc(C)c1NC(=O)C[n+]1cccn1Cc1ccccc1` [Compound 92], the “PAMPA (10^−6 cm/s)” value in series [1] was “+ (<0.1 10^−6 cm/s)”. In addition, the half-maximal inhibitory concentration (IC50) is greater than 100 µM in series [2] and 1 to 3 µM in series [3].
For `Cc1cccc(C)c1NC(=O)C[n+]1c(C)ccn1C` [Compound 93], in series [1], the “PAMPA (10^−6 cm/s)” value was “+ (<0.1 10^−6 cm/s)”. Further, the concentration for half-maximal inhibition (IC50) in series [2] is greater than 100 µM; in series [3] it was 3 to 10 µM.
`Cc1cccc(C)c1NC(=O)C[n+]1c(C)ccn1C(C)C` [Compound 102]: the “PAMPA (10^−6 cm/s)” value in series [1] is on record as “+ (<0.1 10^−6 cm/s)”. Further, the IC50 in series [2] is greater than 100 µM; in series [3], 1 to 3 µM.
Turning to `CCCC(C(=O)Nc1c(C)cccc1C)[n+]1ccccc1` (stereo not drawn) [Compound 107], the “PAMPA (10^−6 cm/s)” value in series [1] is “+ (<0.1 10^−6 cm/s)”. The half-inhibitory concentration (IC50) in series [2] was greater than 100 µM; in series [3], 3 to 10 µM.

Source of the values: patent US10934263B2, “Charged ion channel blockers and methods for use” (Nocion Therapeutics, Inc., priority 2019, dated 2021).
